The source of these data is US8519188B2, “Compounds which can be used for the treatment of cancers” (Marc-Henry Pitty, priority 2008, dated 2013).

Assay [1] deals with MCF-7/adr adriamycin-resistant breast cancer cell line. The assay can be described thus: Cell proliferation (CellTiter 96 AQueous MTS/PMS), MCF-7/adr. The format is cell-based. Particulars: Homo sapiens, NCI/ADR-RES; MCF-7/adr; 72 hours of incubation; concentration that induces the death of 50% of the cells; read-out: CI50 for various cell lines (nM) MCF-7/adr. The protocol: (§1) The effects of the compounds of the invention on the proliferation of cancer cells were studied on various human cancer cell lines of various tissue origins (MCF-7: breast cancer, MCF-7/adr adriamycin-resistant breast cancer, ARH-77: myeloma, ARH-77/Dox: doxorubicin (other name for adriamycin)-resistant myeloma, HL-60: acute promyelocytic leukaemia, HL-60/R10: doxorubicin-resistant acute promyelocytic leukaemia). The cancer cells used for this study were incubated at 37° C. in the presence of one of the compounds of the invention added to the culture medium at various concentrations.
(§2) The cancer cell lines originate from the ATCC (American Type Culture Collection) in the case of MCF-7, ARH-77 and HL-60, from Pharmacell (Paris, France) for HL-60/R10, from Oncodesign (Dijon, France) for ARH-77/Dox and from the Pitié Salpetrière Hospital for MCF-7/adr. They were cultivated in a RPMI 1640 medium containing 2 mM L-glutamine and supplemented with 10% foetal calf serum. All the cell lines were maintained in culture at 37° C. in a moist atmosphere containing 5% CO2. Cell proliferation was evaluated using the “CellTiter 96® AQueous” reagent (Promega, Wis., USA) while adhering to the manufacturer's instructions. The cells were seeded in 96-well culture plates in a proportion of from 5,000 to 10,000 cells per well in 200 μl of culture medium. After 24 hours of preincubation at 37° C., the compounds of the invention dissolved in dimethyl sulphoxide (DMSO) were added individually to each of the wells in a proportion of 2 μl per well. After 72 hours of incubation at 37° C. in a moist atmosphere containing 5% CO2, 40 μL of a MTS/PMS ([3-(4,5-dimethylthiazol-2-yl)-5-(3-carboxymethoxyphenyl)-2-(4-sulphophenyl)-2H-tetrazolium phenazine methosulphate) solution were added to each well.

In assay [2] the test system is MCF-7 breast cancer cell line. The assay can be described thus: Cell proliferation (CellTiter 96 AQueous MTS/PMS), MCF-7. Particulars: Homo sapiens, MCF7; MCF-7; 72 hours of incubation; concentration that induces the death of 50% of the cells; read-out: CI50 for various cell lines (nM) MCF-7. In kind it is cell-based. The protocol: as §1, §2

Turning to `C#CC(=O)N(c1cccc(C(F)(F)F)c1)C(C(=O)NC1CCCCC1)c1cccc(C)c1` (centres unmarked) [Compound 94, Propynoic Acid (cyclohexylcarbamoyl-m-tolylmethyl)-(3-trifluoromethylphenyl)amide], the IC50 in assay [1] is 2 nM; in assay [2] it was 599 nM.
For the compound `C#CC(=O)N(c1cccc(C(F)(F)F)c1)C(C(=O)NC1CCCCC1)c1cccc(C#N)c1` (centres unmarked) [Compound 95, Propynoic Acid [(3-cyanophenyl)-cyclohexylcarbamoylmethyl]-(3-trifluoromethylphenyl)amide], the IC50 in assay [1] was found to be 1.4 nM; in assay [2], 243 nM.
For `C#CC(=O)N(c1cccc(C(F)(F)F)c1)C(C(=O)NC1CCCCC1)c1ccc(C)cc1C` (centres unmarked) [Compound 100, Propynoic Acid [cyclohexylcarbamoyl-(2,4-dimethylphenyl)methyl]-(3-trifluoromethylphenyl)amide], the IC50 in assay [1] was determined as 0.5 nM; in assay [2], 308 nM.
The corresponding values for `C#CC(=O)N(c1cccc(C(F)(F)F)c1)C(C(=O)NC1CCCCC1)c1ccc(N2CCCC2)cc1` (centres unmarked) [Compound 101, Propynoic Acid [cyclohexylcarbamoyl-(4-pyrrolidin-1-yl-phenyl)methyl]-(3-trifluoromethylphenyl)amide] are 1.1 nM and 416 nM.
The corresponding values for `C#CC(=O)N(c1cccc(C(F)(F)F)c1)C(C(=O)NC1CCCCC1)c1ccc(Cl)c(Cl)c1` (centres unmarked) [Compound 102, Propynoic Acid [cyclohexylcarbamoyl-(3,4-dichlorophenyl)methyl]-(3-trifluoromethylphenyl)amide] are 1 nM and 428 nM.
The corresponding values for `C#CC(=O)N(c1cccc(C(F)(F)F)c1)C(C(=O)NC1CCCCC1)c1cccc(F)c1F` (centres unmarked) [Compound 106, Propynoic Acid [cyclohexylcarbamoyl-(2,3-difluorophenyl)methyl]-(3-trifluoromethylphenyl)amide] are 1 nM and 260 nM.
Turning to `O=C(NC1CCCCC1)C(c1cccs1)N(C(=O)CBr)c1cccc(C(F)(F)F)c1` (centres unmarked) [Compound 107, 2-[(2-Bromoacetyl)-(3-trifluoromethylphenyl)amino]-N-cyclohexyl-2-thiophen-2-yl-acetamide], the IC50 in assay [1] stood at 0.5 nM; in assay [2], 267 nM.
The corresponding values for `COc1ccc(N(C(=O)CCl)C(C(=O)NC2CCCCC2)c2cccs2)cc1` (centres unmarked) [Compound 109, 2-[(2-Chloroacetyl)-(4-methoxyphenyl)amino]-N-cyclohexyl-2-thiophen-2-yl-acetamide] are 1 nM and 100 nM.
In the case of `O=C(NC1CCCCC1)C(c1cccs1)N(C(=O)CCl)c1cccc(C(F)(F)F)c1` (centres unmarked) [Compound 110, 2-[(2-Chloroacetyl)-(3-trifluoromethylphenyl)amino]-N-cyclo hexyl-2-thiophen-2-yl-acetamide], the IC50 is 1 nM in assay [1] and 70 nM in assay [2].
The corresponding values for `C#CC(=O)N(c1cccc(C(F)(F)F)c1)C(C(=O)Nc1ccccc1OCc1ccccc1)c1cccs1` (centres unmarked) [Compound 112, Propynoic Acid [(2-benzyloxyphenylcarbamoyl)thiophen-2-yl-methyl]-(3-trifluoromethylphenyl)amide] are 1.8 nM and 200 nM.
`N#Cc1cccc(N(C(=O)CCl)C(C(=O)NC2CCCCC2)c2cccs2)c1` (centres unmarked) [Compound 121, 2-[(2-Chloroacetyl)-(3-cyanophenyl)amino]-N-cyclohexyl-2-thiophen-2-yl-acetamide]: the IC50 in assay [1] is 70 nM; in assay [2], 252 nM.
Take `N#Cc1ccc(N(C(=O)CCl)C(C(=O)NC2CCCCC2)c2cccs2)cc1` (centres unmarked) [Compound 122, 2-[(2-Chloroacetyl)-(4-cyanophenyl)amino]-N-cyclohexyl-2-thiophen-2-yl-acetamide]: the IC50 worked out at 4 nM in assay [1] and 300 nM in assay [2].
The matching figures for `COc1ccccc1N(C(=O)CCl)C(C(=O)NC1CCCCC1)c1cccs1` (centres unmarked) [Compound 124, 2-[(2-Chloroacetyl)-(2-methoxyphenyl)amino]-N-cyclohexyl-2-thiophen-2-yl-acetamide]: 27 nM and > 2000 nM.
